Test results published in article PMC8306933 (Molecules, 2021).
Where two headings read alike, the source gives them in different places.

Tests used:
[1] = biological target: T1, α-amylase from porcine pancreas (Sus scrofa, UniProt P00690); assay: biochemical; assay type: biochemical
T1 construct: purchased Sigma-Aldrich (St. Louis, MO, USA); host or cells: porcine pancreas
T1 sequence (P00690 16-511): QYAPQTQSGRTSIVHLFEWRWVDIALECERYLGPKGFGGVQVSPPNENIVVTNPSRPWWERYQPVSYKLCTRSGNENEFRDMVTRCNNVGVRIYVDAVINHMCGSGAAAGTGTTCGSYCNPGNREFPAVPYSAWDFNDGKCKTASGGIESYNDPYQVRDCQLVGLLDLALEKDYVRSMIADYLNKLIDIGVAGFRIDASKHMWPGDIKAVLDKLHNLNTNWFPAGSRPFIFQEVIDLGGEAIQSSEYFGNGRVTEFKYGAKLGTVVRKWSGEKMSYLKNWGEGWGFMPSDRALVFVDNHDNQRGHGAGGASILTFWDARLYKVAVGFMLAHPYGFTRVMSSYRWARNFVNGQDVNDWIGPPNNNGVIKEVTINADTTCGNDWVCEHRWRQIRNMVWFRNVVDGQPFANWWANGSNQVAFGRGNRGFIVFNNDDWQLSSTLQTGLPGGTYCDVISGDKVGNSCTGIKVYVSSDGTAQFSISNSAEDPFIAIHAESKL
Excerpt: (§1) Trizma hydrochloride (Tris-HCl) and bovine serum albumin (BSA) were obtained from Sigma–Aldrich (Steinheim, Germany). Deionized water was produced using a Milli-Q water purification system (Millipore, Bedford, MA, USA). Dulbecco’s Modified Eagle Medium (DMEM) was collected from Gibco (Japan), and fetal bovine serum (FBS) was also collected from Gibco (Waltham, MA, USA). Insulin and penicillin G/streptomycin were collected from Wako (Fujifilm Wako Pure Chemical Corporation, Osaka, Japan), the MTS kit was collected from Promega (Madison, WI, USA), and poly-2-hydroxyethyl methacrylate was collected from Sigma-Aldrich (Taufkirchen, Germany).
α-Amylase inhibitory activity was determined following the starch-iodine method with some modifications. A 1% starch solution was prepared by 1 g of starch in 10 mL of distilled water following gentle boiling and cooling into 100 mL. A reaction mixture, 25 μL sample (0–1 mM) and 50 μL α-amylase (5 U/mL) in phosphate buffer, was incubated at 37 °C for 10 min. Afterwards, the starch (100 μL, 1% w/v) solution was added to the mixture and incubated again at 37 °C for 10 min. […] After adding the iodine/iodide solution, based on the colour change, the absorbance was monitored at 630 nm for 10 min. […] The percentage of inhibition was calculated and results were expressed as IC50 (µM).

[2] = biological target: T2, Acetylcholinesterase from electric eel (Electrophorus electricus, UniProt O42275); assay: biochemical; assay type: biochemical
T2 construct: purchased Sigma-Aldrich (St. Louis, MO, USA) type VI-s; host or cells: electric eel
Excerpt: as §1
(§2) The cholinesterase inhibitory (AChE/BChE) properties were ascertained based on Ellman’s method, as previously described. […] In the AChE inhibitory assay, 25 µL of sample solution (0–1 mM) along with 50 µL of buffer B (50 mM Tris-HCl, pH 8 containing 0.1% BSA), 125 µL of DTNB (3 mM), and 25 µL of 0.05 U/mL AChE were incubated at 37 °C for 10 min. After incubation, 25 µL of acetylthiocholine iodide (5 mM) as AChE substrate was incorporated to the solution. The BChE activity was determined following the same protocol using 25 µL of 5 mM S-butyrylthiocholine chloride as BChE substrate and 0.05 U/mL BChE as enzyme. […] The percentage of inhibition was calculated and the results were expressed as IC50 (µM).

[3] = biological target: T3, butyrylcholinesterase from equine serum (Equus caballus, UniProt P81908); assay: BChE inhibition (Ellman's method); assay type: biochemical
T3 construct: purchased Sigma-Aldrich (St. Louis, MO, USA); host or cells: equine serum
Excerpt: as §1, §2

Hs578T cells [4] = assay: Cytotoxicity / cell viability (MTS assay), Hs578T; assay type: cell-based; conditions: for IC50: Homo sapiens, Hs-578T, TNBC cell line Hs578T, read-out: IC50 cytotoxic activity Hs578T; for reduction of the number of TNBC cells Hs578T: after three days of treatment at IC50
Protocol: (§3) The human TNBC cell lines Hs578T and MDA-MB-231 were obtained from the American Type Culture Collection and cultured in Dulbecco’s Modified Eagle Medium (DMEM) supplemented with fetal bovine serum (FBS) (10% v/v), insulin (Hs578T cell only), and penicillin G/streptomycin 1% (v/v) at 37 °C under 5% CO2. The absence of culture contamination by Mycoplasma species was confirmed before the experiments.
(§4) The activity of the selected compounds on breast cancer cell viability were determined employing the MTS assay. Briefly, 5 × 10^3 cells were seeded in each well of a 96-well plate for 24 h, and growth medium containing different compounds was added and incubated in different periods. A total of 20 µL of the MTS kit was added to each well, and the cells were incubated for 2 h. After incubation, the absorbance was measured at 490 nm with an enzyme-linked immunosorbent assay microplate reader (BioTek Instruments, USA). The absorbance value is directly proportional to the number of living cells.

MDA-MB-231 cells [5] = assay: Cytotoxicity / cell viability (MTS assay), MDA-MB-231; assay type: cell-based; conditions: for IC50: Homo sapiens, TNBC cell line MDA-MB-231, read-out: IC50 cytotoxic activity MDA-MB-231; for reduction of the number of TNBC cells MDA-MB-231: after three days of treatment at IC50
Protocol: as §3, §4

Hs578T cells [6] = assay: Transwell cell migration assay, Hs578T; assay type: cell-based, human; conditions: at IC50; vs DMSO control
Protocol: as §3
(§5) The effects of the selected compounds on breast cancer cell migration were evaluated in transwell chambers according to a published protocol. Briefly, the Hs578T and MDA-MB-231 cells were treated with the tested compounds for 24 h, trypsinized, and washed twice with serum-free medium. Approximately 3 × 10^4 pretreated cells, suspended in 100 μL of the serum-free medium, were seeded to the upper chamber. The lower chambers were filled with approximately 500 μL of DMEM medium with 10% FBS and incubated for 12 h. After incubation, the cells from the upper surface were wiped off with cotton swabs, while the migrated cells on the opposite side of the transwell were washed twice with PBS, fixed with 4% paraformaldehyde, and finally stained with crystal violet solution. After 2 washes with water (Milli Q), several microscopic fields were taken randomly, and the migrated cells were counted using ImageJ software.

MDA-MB-231 cells [7] = assay: Transwell cell migration assay, MDA-MB-231; assay type: cell-based, human; conditions: at IC50; vs DMSO control
Protocol: as §3, §5

Hs578T cells [8] = assay: Tumor-sphere formation assay, Hs578T; assay type: cell-based, human; conditions: in vitro tumor-sphere formation
Protocol: as §3
(§6) Three-dimensional or tumor-sphere culture is a recently introduced in vitro technique which maintains a physiological environment which closely resembles that of in vivo conditions. This technique has now been widely used for the screening of anticancer moieties. In vitro tumor-sphere formation assay was performed following a reported protocol. Briefly, approximately 3 × 10^3 cells were resuspended in a poly-2-hydroxyethyl methacrylate coated 6-well plate containing a sphere-forming medium with or without tested compounds and incubated for one week. The number of tumor spheres were counted, and the diameter of each tumor sphere was measured.

MDA-MB-231 cells [9] = assay: Tumor-sphere formation assay, MDA-MB-231; assay type: cell-based, human; conditions: in vitro tumor-sphere formation
Protocol: as §3, §6

[10] = mean ± SD (n = 3), mammalian α-amylase
[11] = mean ± SD (n = 3), mammalian α-amylase, read-out: IC50 α-Amylase
[12] = mean ± SD (n = 3), tested 0–1 mM
[13] = mean ± SD (n = 3), tested 0–1 mM, read-out: IC50 AChE
[14] = mean ± SD (n = 3), tested 0–1 mM, read-out: IC50 BChE

T3 sequence (P81908 whole entry): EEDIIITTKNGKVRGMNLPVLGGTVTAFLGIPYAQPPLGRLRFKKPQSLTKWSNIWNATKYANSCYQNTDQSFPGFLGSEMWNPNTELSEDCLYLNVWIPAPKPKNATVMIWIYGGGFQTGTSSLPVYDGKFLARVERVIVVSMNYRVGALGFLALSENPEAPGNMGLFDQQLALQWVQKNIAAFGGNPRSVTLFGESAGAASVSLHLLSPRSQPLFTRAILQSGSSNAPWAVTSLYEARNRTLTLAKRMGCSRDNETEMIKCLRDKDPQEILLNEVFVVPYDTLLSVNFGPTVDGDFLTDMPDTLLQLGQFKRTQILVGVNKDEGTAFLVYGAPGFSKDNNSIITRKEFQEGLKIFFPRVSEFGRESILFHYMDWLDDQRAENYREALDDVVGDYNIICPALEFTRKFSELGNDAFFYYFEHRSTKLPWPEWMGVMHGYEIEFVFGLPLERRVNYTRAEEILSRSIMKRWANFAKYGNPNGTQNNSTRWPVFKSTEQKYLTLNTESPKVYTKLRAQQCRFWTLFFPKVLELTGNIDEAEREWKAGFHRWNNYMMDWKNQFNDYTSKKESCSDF
T2 sequence (O42275 24-633): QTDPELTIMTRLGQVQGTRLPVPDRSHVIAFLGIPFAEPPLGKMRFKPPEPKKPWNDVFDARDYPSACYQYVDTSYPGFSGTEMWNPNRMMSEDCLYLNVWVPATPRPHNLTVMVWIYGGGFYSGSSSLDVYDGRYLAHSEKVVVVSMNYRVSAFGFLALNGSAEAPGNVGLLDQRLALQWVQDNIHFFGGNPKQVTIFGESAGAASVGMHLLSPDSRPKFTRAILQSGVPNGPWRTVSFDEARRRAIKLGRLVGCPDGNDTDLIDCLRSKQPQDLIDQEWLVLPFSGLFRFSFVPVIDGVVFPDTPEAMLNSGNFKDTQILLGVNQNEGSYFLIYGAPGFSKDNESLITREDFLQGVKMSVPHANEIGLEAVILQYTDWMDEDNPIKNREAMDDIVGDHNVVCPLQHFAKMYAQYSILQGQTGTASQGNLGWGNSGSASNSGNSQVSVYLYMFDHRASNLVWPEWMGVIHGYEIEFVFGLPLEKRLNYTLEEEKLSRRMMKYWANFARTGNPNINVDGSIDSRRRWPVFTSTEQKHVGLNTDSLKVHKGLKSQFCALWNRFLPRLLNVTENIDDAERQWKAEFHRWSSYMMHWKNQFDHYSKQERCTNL

SMILES | IC50 [1] [µM] | IC50 [2] [µM] | IC50 [3] [µM] | IC50 (Hs578T cells [4]) [µM] | IC50 (MDA-MB-231 cells [5]) [µM] | IC50 α-Amylase [1, 10] | IC50 [1, 11] [µM] | IC50 AChE [2, 12] | IC50 [2, 13] [µM] | IC50 [3, 14] [µM] | reduction of the number of TNBC cells Hs578T (Hs578T cells [4]) [%] | reduction of the number of TNBC cells MDA-MB-231 (MDA-MB-231 cells [5]) [%] | inhibition of migration of Hs578T cell (Hs578T cells [6]) [%] | inhibition of migration of MDA-MB-231 (MDA-MB-231 cells [7]) [%] | tumor-sphere size and number, Hs578T (Hs578T cells [8]) | tumor-sphere size and number, MDA-MB-231 (MDA-MB-231 cells [9])
CC1=C(CO)[C@@H]2CC(=O)c3cc(C[C@@H](C)O)c(O[C@@H]4O[C@@H](CO)C(O)[C@H](O)[C@@H]4O[C@@H]4O[C@H](CO)[C@@H](O)[C@H](O)[C@@H]4O)c(O)c3[C@@]2(C)CC1 (stereo partly drawn) [Compound 1, (5R,10S,16R)-11,16,19-trihydroxy-12-O-β-D-glucopyranosyl-(1→2)-β-D-glucopyranosyl-17(15→16),18(4→3)-diabeo-3,8,11,13-abietatetraene-7-one] | 18.5 ± 0.6 | 191 ± 10.2 | > 1000 | 128 ± 2.2 | 122 ± 1.2 | – | – | – | – | – | – | – | – | – | – | –
CC1=C(C(=O)O)C2CC(=O)c3cc(CC(C)O)c(OC4OC(CO)C(O)C(O)C4OC4OC(CO)C(O)C(O)C4O)c(O)c3C2(C)CC1 [Compound 2, (5R,10S,16R)-11,16-dihydroxy-12-O-β-D-glucopyranosyl-(1→2)-β-D-glucopyranosyl-17(15→16),18(4→3)-diabeo-4-carboxy-3,8,11,13-abietatetraene-7-one] | 64.6 ± 7.1 | 139 ± 7.2 | > 1000 | – | – | – | – | – | – | – | – | – | – | – | – | –
CC1=CC(=O)CC(C)(C)[C@H]1CC[C@@H](C)O[C@@H]1O[C@H](CO)[C@@H](O)[C@H](O)[C@H]1O [Compound 3, byzantionoside B] | – | – | – | 94.7 ± 1.3 | 118 ± 3.3 | almost inactive | 284 ± 13.2 | no inhibitory activity | > 1000 | > 1000 | 44 | 48 | 50 | 40 | – | –
O=C(O)C[C@H]1CCC(=O)[C@@H]1C/C=C\CCO[C@@H]1O[C@H](COC(=O)/C=C/c2ccc(O)c(O)c2)[C@@H](O)[C@H](O)[C@H]1O [Compound 4, 6′-O-caffeoyl-12-glucopyranosyloxyjasmonic acid] | – | – | – | 210 ± 5.1 | 199 ± 3.1 | – | 13 ± 1.3 | no inhibitory activity | > 1000 | > 1000 | – | – | – | – | – | –
CC1OC(OC2C(O)C(OCCc3ccccc3)OC(CO)C2OC(=O)C=Cc2ccc(O)c(O)c2)C(O)C(O)C1O (stereo not drawn) [Compound 5, jionoside C] | – | – | – | 85.3 ± 2.4 | 96.5 ± 1.5 | – | 24.9 ± 0.4 | – | 160 ± 12.2 | > 1000 | 42 | 43 | 43 | 37 | reduced the cell size (Figure 5A,C) and the cell number significantly | reduced the cell size (Figure 5A,C) and the cell number significantly
COc1ccc(CCO[C@@H]2O[C@H](CO)[C@@H](OC(=O)/C=C/c3ccc(O)c(O)c3)[C@H](O[C@@H]3O[C@@H](C)[C@H](O)[C@@H](O)[C@H]3O)[C@H]2O)cc1O [Compound 6, jionoside D] | – | – | – | – | – | – | 3.4 ± 0.2 | no inhibitory activity | > 1000 | > 1000 | – | – | – | – | – | –
COc1ccc(CCO[C@@H]2O[C@H](CO)[C@@H](OC(=O)/C=C/c3ccc(O)c(O)c3)[C@H](O[C@@H]3O[C@@H](C)[C@H](O)[C@@H](O)[C@H]3O)[C@H]2O)cc1OC [Compound 7, brachynoside] | – | – | – | – | – | almost inactive | 221 ± 24.5 | no inhibitory activity | > 1000 | > 1000 | – | – | – | – | – | –
COc1cc(/C=C/C(=O)O[C@H]2[C@H](O[C@@H]3O[C@@H](C)[C@H](O)[C@@H](O)[C@H]3O[C@@H]3O[C@H](CO)[C@@H](O)[C@H](O)[C@H]3O)[C@@H](O)[C@H](OCCc3ccc(O)c(O)c3)O[C@@H]2CO)ccc1O [Compound 8, incanoside C] | – | – | – | – | – | – | 19.8 ± 0.5 | – | 178 ± 11.3 | > 1000 | – | – | – | – | – | –
